Literature values, collected in article PMC10787790, “Isatin-tethered halogen-containing acylhydrazone derivatives as monoamine oxidase inhibitor with neuroprotective effect” (Scientific Reports, 2024).

Test system: MAO-B
Conditions: printed in Figure 2 (design strategy), no reference given; cited from earlier work

O=C1Nc2ccc(Cl)cc2/C1=N\NC(=O)c1ccc2c(c1)OCO2 [Compound 2A]
IC50: 89 nM
